The values that follow are results of earlier work, collected in US9180195B2, “Controlled release gels” (Nano Fiber Matrices B.V., priority 2005, dated 2015).

The conditions of the data set: for time to complete release from LMWG gel: from gels of N,N′-dibenzoyl-L-cystine (DBC).

On to `Oc1ccc2ccccc2n1` [HQ, 2-hydroxyquinoline], for which the “time to complete release from LMWG gel” value is “approximately 15 min”. Moreover, the “initial release rate relative to AQ” value (from gels of DBC) is “approximately seven”.
As for `Nc1cccc2cccnc12` [AQ, 8-aminoquinoline], the “time to complete release from LMWG gel” value is roughly 1 h.
